What was measured:
Assay in all cases: Kinase selectivity, DiscoverX scanMAX Kinase assay panel (% control)
Format in all cases: binding
[1] = target: T1, kinases of the scanMAX Kinase assay panel (Homo sapiens, UniProt P35626); settings: GRK3; 1 uM
T1 construct: purchased DiscoverX Co. (contract measurement) scanMAX Kinase assay panel
T1 sequence (P35626 1-688): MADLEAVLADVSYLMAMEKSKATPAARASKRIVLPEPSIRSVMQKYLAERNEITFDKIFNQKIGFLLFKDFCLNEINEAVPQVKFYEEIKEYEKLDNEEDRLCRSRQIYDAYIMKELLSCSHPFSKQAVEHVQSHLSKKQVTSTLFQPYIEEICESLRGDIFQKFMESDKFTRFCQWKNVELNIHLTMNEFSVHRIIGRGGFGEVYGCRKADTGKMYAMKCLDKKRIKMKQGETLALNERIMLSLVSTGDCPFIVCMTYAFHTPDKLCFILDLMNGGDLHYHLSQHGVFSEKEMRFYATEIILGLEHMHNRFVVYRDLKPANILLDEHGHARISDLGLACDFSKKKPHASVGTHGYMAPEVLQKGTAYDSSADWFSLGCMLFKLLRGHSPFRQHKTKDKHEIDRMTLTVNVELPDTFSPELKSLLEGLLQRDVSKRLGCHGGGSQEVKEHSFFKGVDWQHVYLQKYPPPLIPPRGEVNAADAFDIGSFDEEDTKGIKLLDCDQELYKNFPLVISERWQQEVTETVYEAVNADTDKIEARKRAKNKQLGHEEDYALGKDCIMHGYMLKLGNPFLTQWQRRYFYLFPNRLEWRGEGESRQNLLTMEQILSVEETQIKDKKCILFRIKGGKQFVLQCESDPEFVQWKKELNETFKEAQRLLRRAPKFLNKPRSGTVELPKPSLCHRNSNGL
Method in brief: (§1)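 Binding-panel profiling at one concentration, 1 uM in DMSO; values are % of DMSO control after subtracting the positive-control floor. Less than 35% means activity on that kinase.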

[2] = target: T2, kinases of the scanMAX Kinase assay panel (Homo sapiens, UniProt Q13523); settings: PRP4; 1 uM
T2 construct: purchased DiscoverX Co. (contract measurement) scanMAX Kinase assay panel
Method in brief: as §1

[3] = target: T3, kinases of the scanMAX Kinase assay panel (Homo sapiens, UniProt P42679); settings: CTK; 1 uM
T3 construct: purchased DiscoverX Co. (contract measurement) scanMAX Kinase assay panel
T3 sequence (P42679 1-507): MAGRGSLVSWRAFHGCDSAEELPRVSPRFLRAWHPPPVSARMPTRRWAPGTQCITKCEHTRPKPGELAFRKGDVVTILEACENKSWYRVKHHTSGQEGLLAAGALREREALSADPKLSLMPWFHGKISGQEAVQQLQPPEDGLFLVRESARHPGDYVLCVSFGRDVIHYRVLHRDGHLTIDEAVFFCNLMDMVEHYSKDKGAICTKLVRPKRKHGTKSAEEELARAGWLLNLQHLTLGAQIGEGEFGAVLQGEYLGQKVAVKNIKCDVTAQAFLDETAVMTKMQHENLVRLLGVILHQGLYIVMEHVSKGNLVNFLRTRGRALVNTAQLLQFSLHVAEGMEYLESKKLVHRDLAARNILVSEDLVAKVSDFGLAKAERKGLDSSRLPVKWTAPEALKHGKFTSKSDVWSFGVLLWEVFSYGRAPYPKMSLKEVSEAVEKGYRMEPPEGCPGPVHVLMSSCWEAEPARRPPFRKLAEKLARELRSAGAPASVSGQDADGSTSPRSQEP
Method in brief: as §1

[4] = target: T4, kinases of the scanMAX Kinase assay panel (Homo sapiens, UniProt Q9Y2H1); settings: NDR2; 1 uM
T4 construct: purchased DiscoverX Co. (contract measurement) scanMAX Kinase assay panel
Method in brief: as §1

[5] = target: T5, kinases of the scanMAX Kinase assay panel (Homo sapiens, UniProt P19784); settings: CSNK2A2; 1 uM
T5 construct: purchased DiscoverX Co. (contract measurement) scanMAX Kinase assay panel
Method in brief: as §1

[6] = target: T6, kinases of the scanMAX Kinase assay panel (Homo sapiens, UniProt P10721, T670I/V559D); settings: KIT(V559D, T670I); 1 uM
T6 construct: purchased DiscoverX Co. (contract measurement) scanMAX Kinase assay panel
T6 sequence (P10721 26-976 V559D/T670I): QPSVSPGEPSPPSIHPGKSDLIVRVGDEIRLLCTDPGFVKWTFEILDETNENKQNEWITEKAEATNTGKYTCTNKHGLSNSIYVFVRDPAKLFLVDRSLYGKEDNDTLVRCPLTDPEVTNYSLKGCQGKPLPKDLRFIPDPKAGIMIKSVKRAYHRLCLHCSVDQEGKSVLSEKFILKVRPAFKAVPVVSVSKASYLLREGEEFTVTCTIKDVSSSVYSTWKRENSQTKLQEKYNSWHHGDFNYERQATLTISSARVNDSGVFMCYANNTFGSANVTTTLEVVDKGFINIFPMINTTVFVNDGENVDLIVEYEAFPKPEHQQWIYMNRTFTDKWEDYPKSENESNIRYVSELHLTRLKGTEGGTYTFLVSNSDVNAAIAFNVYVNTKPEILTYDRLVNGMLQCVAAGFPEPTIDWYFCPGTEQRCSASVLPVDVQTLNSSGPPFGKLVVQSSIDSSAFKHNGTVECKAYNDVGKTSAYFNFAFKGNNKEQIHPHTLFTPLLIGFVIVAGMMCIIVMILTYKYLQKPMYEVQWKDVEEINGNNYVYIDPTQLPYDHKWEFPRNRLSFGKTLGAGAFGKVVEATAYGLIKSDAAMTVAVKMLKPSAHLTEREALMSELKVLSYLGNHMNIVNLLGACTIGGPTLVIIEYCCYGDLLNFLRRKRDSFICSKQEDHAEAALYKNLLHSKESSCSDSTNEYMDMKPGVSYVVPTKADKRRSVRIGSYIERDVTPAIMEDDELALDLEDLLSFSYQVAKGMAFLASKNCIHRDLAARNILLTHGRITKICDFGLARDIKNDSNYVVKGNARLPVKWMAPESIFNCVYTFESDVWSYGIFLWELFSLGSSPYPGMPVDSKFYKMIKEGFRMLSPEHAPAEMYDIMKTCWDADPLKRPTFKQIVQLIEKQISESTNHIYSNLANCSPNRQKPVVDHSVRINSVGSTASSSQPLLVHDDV
Method in brief: as §1

[7] = target: T7, kinases of the scanMAX Kinase assay panel (Homo sapiens, UniProt P48729); settings: CSNK1A1; 1 uM
T7 construct: purchased DiscoverX Co. (contract measurement) scanMAX Kinase assay panel
T7 sequence (P48729 whole entry): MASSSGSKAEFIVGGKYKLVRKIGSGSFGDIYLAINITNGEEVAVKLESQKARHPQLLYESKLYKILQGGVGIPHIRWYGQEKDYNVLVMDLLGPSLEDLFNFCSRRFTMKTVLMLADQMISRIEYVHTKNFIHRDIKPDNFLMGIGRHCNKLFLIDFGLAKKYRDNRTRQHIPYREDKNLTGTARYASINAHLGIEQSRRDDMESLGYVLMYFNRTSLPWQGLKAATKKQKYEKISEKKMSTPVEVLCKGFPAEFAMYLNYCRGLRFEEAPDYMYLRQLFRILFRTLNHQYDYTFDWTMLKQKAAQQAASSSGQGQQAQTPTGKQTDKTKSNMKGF
Method in brief: as §1

[8] = target: T8, kinases of the scanMAX Kinase assay panel (Homo sapiens, UniProt Q9UKE5); settings: kinase TNIK; 1 uM in DMSO
T8 construct: purchased DiscoverX Co. (contract measurement) scanMAX Kinase assay panel
T8 sequence (Q9UKE5 whole entry): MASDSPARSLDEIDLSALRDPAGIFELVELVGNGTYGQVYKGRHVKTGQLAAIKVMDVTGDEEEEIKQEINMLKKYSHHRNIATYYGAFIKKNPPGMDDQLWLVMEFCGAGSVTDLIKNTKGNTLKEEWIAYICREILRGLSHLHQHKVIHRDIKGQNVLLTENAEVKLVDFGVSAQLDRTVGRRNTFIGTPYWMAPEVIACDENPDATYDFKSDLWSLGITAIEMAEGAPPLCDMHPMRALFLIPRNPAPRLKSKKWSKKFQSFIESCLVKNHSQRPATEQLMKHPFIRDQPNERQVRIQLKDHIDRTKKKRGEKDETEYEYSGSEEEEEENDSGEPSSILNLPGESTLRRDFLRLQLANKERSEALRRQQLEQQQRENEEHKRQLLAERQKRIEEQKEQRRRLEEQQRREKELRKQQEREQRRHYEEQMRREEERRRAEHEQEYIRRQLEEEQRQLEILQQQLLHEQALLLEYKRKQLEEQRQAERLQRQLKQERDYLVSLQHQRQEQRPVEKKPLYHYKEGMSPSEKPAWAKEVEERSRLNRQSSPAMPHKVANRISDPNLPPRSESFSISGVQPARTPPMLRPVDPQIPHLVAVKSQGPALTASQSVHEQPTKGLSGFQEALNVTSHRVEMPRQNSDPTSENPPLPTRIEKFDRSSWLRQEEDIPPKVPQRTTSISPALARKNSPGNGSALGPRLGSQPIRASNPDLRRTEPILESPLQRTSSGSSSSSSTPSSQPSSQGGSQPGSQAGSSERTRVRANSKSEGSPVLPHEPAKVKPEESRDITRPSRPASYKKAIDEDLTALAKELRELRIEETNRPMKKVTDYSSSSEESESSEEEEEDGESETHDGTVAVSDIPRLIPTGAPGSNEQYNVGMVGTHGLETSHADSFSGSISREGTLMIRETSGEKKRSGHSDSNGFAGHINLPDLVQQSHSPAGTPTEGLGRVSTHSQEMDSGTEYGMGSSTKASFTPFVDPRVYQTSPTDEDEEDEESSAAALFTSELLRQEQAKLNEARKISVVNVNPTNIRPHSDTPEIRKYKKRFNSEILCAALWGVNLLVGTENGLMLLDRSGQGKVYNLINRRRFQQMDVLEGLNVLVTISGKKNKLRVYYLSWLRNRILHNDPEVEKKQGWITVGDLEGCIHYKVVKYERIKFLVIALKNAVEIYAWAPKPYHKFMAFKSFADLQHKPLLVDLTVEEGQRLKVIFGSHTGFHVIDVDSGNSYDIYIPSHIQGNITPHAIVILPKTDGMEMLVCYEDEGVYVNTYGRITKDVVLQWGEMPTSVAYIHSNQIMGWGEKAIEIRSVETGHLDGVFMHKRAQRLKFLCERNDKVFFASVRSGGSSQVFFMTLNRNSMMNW
Method in brief: as §1

[9] = target: T9, kinases of the scanMAX Kinase assay panel (Homo sapiens, UniProt Q9UM73); settings: ALK; 1 uM
T9 construct: purchased DiscoverX Co. (contract measurement) scanMAX Kinase assay panel
Method in brief: as §1

[10] = target: T10, kinases of the scanMAX Kinase assay panel (Homo sapiens, UniProt Q9UM73, L1196M); settings: ALK(L1196M); 1 uM
T10 construct: purchased DiscoverX Co. (contract measurement) scanMAX Kinase assay panel
Method in brief: as §1

[11] = target: T11, kinases of the scanMAX Kinase assay panel (Homo sapiens, UniProt P49137); settings: MAPKAPK2; 1 uM
T11 construct: purchased DiscoverX Co. (contract measurement) scanMAX Kinase assay panel
Method in brief: as §1

[12] = target: T12, kinases of the scanMAX Kinase assay panel (Homo sapiens, UniProt Q9HC98); settings: NEK6; 1 uM
T12 construct: purchased DiscoverX Co. (contract measurement) scanMAX Kinase assay panel
T12 sequence (Q9HC98 whole entry): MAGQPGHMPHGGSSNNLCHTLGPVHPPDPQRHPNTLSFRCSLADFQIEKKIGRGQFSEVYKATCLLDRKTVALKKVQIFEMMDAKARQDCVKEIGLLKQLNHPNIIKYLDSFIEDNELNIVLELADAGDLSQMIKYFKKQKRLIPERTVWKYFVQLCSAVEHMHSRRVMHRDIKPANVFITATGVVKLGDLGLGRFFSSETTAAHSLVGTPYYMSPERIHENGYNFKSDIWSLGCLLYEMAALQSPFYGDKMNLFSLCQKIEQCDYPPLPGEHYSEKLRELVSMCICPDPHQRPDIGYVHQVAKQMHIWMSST
Method in brief: as §1

[13] = target: T13, kinases of the scanMAX Kinase assay panel (Homo sapiens, UniProt Q13557); settings: CAMK2D; 1 uM
T13 construct: purchased DiscoverX Co. (contract measurement) scanMAX Kinase assay panel
Method in brief: as §1

[14] = target: T14, kinases of the scanMAX Kinase assay panel (Homo sapiens, UniProt P08631); settings: HCK; 1 uM
T14 construct: purchased DiscoverX Co. (contract measurement) scanMAX Kinase assay panel
T14 sequence (P08631 whole entry): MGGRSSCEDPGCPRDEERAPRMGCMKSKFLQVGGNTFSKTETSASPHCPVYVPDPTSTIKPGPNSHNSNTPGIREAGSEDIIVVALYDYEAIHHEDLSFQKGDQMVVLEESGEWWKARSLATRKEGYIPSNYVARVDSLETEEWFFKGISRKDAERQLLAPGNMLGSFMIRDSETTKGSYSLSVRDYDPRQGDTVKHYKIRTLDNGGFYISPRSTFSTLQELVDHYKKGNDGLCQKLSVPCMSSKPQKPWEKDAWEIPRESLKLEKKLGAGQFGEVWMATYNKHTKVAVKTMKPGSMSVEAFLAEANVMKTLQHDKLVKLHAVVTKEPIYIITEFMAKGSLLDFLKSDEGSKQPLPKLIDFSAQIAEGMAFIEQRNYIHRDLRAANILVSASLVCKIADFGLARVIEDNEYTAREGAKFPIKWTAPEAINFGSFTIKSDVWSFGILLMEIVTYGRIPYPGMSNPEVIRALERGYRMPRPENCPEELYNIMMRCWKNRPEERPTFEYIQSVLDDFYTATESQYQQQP
Method in brief: as §1

[15] = target: T15, kinases of the scanMAX Kinase assay panel (Homo sapiens, UniProt P35916); settings: FLT4; 1 uM
T15 construct: purchased DiscoverX Co. (contract measurement) scanMAX Kinase assay panel
Method in brief: as §1

[16] = target: T16, kinases of the scanMAX Kinase assay panel (Homo sapiens, UniProt O95747); settings: OSR1; 1 uM
T16 construct: purchased DiscoverX Co. (contract measurement) scanMAX Kinase assay panel
T16 sequence (O95747 whole entry): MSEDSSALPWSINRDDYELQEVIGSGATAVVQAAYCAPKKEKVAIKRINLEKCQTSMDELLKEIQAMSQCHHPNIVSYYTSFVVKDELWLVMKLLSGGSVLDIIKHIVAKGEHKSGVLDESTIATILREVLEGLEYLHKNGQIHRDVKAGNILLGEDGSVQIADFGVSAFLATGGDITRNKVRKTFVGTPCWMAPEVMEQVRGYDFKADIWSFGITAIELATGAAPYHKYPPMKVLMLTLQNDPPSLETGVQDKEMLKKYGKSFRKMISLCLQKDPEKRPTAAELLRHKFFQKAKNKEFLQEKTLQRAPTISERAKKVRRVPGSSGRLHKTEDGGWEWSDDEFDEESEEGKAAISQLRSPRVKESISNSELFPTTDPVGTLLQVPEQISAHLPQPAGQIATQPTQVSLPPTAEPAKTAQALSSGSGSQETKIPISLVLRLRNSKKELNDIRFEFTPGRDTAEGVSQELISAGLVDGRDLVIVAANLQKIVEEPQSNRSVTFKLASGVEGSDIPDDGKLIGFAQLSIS
Method in brief: as §1

[17] = target: T17, kinases of the scanMAX Kinase assay panel (Homo sapiens, UniProt Q13554); settings: CAMK2B; 1 uM
T17 construct: purchased DiscoverX Co. (contract measurement) scanMAX Kinase assay panel
T17 sequence (Q13554 whole entry): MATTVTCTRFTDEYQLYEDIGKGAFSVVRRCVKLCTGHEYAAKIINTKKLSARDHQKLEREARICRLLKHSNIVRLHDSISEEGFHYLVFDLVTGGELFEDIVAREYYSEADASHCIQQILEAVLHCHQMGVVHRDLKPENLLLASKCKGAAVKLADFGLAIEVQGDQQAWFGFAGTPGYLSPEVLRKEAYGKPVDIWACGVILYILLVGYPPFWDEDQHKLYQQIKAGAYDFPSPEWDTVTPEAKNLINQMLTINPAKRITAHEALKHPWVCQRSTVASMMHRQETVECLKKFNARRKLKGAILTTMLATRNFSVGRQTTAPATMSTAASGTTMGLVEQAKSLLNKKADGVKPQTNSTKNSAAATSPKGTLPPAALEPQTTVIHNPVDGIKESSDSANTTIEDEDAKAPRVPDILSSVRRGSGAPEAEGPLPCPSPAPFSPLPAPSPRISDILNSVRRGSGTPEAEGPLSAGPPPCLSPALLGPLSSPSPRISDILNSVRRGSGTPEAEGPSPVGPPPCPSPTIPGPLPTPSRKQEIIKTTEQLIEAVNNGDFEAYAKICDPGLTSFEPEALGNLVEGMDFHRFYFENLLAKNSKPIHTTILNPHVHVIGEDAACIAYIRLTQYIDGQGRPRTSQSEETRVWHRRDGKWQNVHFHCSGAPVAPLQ
Method in brief: as §1

[18] = target: T18, kinases of the scanMAX Kinase assay panel (Homo sapiens, UniProt P28482); settings: ERK2; 1 uM
T18 construct: purchased DiscoverX Co. (contract measurement) scanMAX Kinase assay panel
T18 sequence (P28482 whole entry): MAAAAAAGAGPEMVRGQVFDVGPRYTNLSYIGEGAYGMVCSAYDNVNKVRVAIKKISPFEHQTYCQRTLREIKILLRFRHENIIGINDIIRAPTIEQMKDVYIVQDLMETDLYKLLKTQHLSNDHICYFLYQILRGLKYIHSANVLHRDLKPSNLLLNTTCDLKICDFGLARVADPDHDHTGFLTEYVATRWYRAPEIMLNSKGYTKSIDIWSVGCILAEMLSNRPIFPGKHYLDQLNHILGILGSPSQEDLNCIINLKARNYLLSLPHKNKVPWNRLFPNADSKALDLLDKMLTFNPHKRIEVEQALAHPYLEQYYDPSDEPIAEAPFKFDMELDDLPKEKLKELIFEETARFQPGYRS
Method in brief: as §1

SMILES: CC1(Nc2nc(Nc3cnn([C@H]4CCN(C5COC5)C[C@@H]4F)c3Cl)nc3[nH]cc(C#N)c23)CC1 [Example 52, 2-((5-chloro-1-((3S,4S)-3-fluoro-1-(oxetane-3-yl)piperidine-4-yl)-1H-pyrazole-4-yl)amino)((1-methylcyclopropyl)amino)-7H-pyrrolo[2,3-d]pyrimidine-5-carbonitrile]
- remaining binding at 1 µM [1]: 53%
- remaining binding at 1 µM [2]: 19%
- remaining binding at 1 µM [3]: 47%
- remaining binding at 1 µM [4]: 31%
- remaining binding at 1 µM [5]: 11%
- remaining binding at 1 µM [6]: 0.4%
- remaining binding at 1 µM [7]: 1.6%
- remaining binding at 1 µM [8]: 3.5%
- remaining binding at 1 µM [9]: 3%
- remaining binding at 1 µM [10]: 9.9%
- remaining binding at 1 µM [11]: 70%
- remaining binding at 1 µM [12]: 93%
- remaining binding at 1 µM [13]: 65%
- remaining binding at 1 µM [14]: 11%
- remaining binding at 1 µM [15]: 0.6%
- remaining binding at 1 µM [16]: 0.45%
- remaining binding at 1 µM [17]: 57%
- remaining binding at 1 µM [18]: 54%

SMILES: CNc1nc(Nc2ccc(C(=O)N3CCOCC3)cc2OC)nc2[nH]cc(C#N)c12 [Example 1, 2-((2-methoxy-4-(morpholine-4-carbonyl)phenyl)amino)-4-(methylamino)-7H-pyrrolo[2,3-d]pyrimidine-5-carbonitrile]
- remaining binding at 1 µM [1]: 99%
- remaining binding at 1 µM [2]: 100%
- remaining binding at 1 µM [3]: 98%
- remaining binding at 1 µM [4]: 98%
- remaining binding at 1 µM [5]: 76%
- remaining binding at 1 µM [6]: 73%
- remaining binding at 1 µM [7]: 19%
- remaining binding at 1 µM [8]: 95%
- remaining binding at 1 µM [9]: 13%
- remaining binding at 1 µM [10]: 33%
- remaining binding at 1 µM [11]: 4.6%
- remaining binding at 1 µM [12]: 95%
- remaining binding at 1 µM [13]: 82%
- remaining binding at 1 µM [14]: 95%
- remaining binding at 1 µM [15]: 100%
- remaining binding at 1 µM [16]: 21%
- remaining binding at 1 µM [17]: 62%
- remaining binding at 1 µM [18]: 86%

SMILES: CCNc1nc(Nc2ccc(C(=O)N3CCC(N4CCOCC4)CC3)cc2OC)nc2[nH]cc(C(F)(F)F)c12 [Example 104, (4-((4-(ethylamino)-5-(trifluoromethyl)-7H-pyrrolo[2,3-d]pyrimidine-2-yl)amino)-3-methoxyphenyl)(4-morpholinopiperidine-1-yl)methanone]
- remaining binding at 1 µM [1]: 97%
- remaining binding at 1 µM [2]: 89%
- remaining binding at 1 µM [3]: 100%
- remaining binding at 1 µM [4]: 100%
- remaining binding at 1 µM [5]: 95%
- remaining binding at 1 µM [6]: 87%
- remaining binding at 1 µM [7]: 56%
- remaining binding at 1 µM [8]: 83%
- remaining binding at 1 µM [9]: 0.35%
- remaining binding at 1 µM [10]: 0.75%
- remaining binding at 1 µM [11]: 24%
- remaining binding at 1 µM [12]: 100%
- remaining binding at 1 µM [13]: 66%
- remaining binding at 1 µM [14]: 100%
- remaining binding at 1 µM [15]: 97%
- remaining binding at 1 µM [16]: 7.5%
- remaining binding at 1 µM [17]: 81%
- remaining binding at 1 µM [18]: 100%
